Here are results for two compounds from US20050203164A1, “Use of acylaminoalkenylene-amide derivatives in functional motility disorders of the viscera” (priority 2002, published 2005).

Test [1] relates to conscious guinea pigs. Briefly: restraint stress-induced visceral hypersensitivity, visceromotor response to colorectal distension. The test is classed as in vivo, guinea pig. As to conditions: restraint stress-induced colonic hypersensitivity, p<0.05 ANOVA post-hoc Dunnett's test. As for the experimental part:
(§1) In conscious guinea pigs, two experimental paradigms are applied to induce visceral hypersensitivity, i) restraint stress (immobilization of the animals in a tube) and ii) colonic tissue irritation (colonic instillation of acetic acid, 0.6% in saline, 1.5 ml, 2 cm proximal to the anus). Colorectal distension is performed by inflating a balloon to a net pressure (at the colonic wall) of 20 mmHg (26.7 mbar) for 10 minutes before and following induction of visceral hypersensitivity. During the distension period the visceromotor response, i.e. the number and quality of abdominal contractions (body arching and lifting of pelvic structures) are recorded and quantified in a blinded fashion (Al-Chaer et al., Gastroenterology 2000; 119: 1276-1285). Following the performance of baseline colorectal distension protocols, vehicle or the compound of formula II (3 and 10 mg/kg) are dosed orally one hour prior to the second colorectal distensions, which are done after the induction of visceral hypersensitivity. The effects of vehicle and the compound of formula II are assessed in 6-8 animals. […] The compound of formula II reverses the exaggerated behavioural pain responses upon colorectal balloon distensions in both restraint stress-induced and tissue irritation-induced colonic hypersensitivity.

Test [2] deals with conscious guinea pigs. As to the kind of experiment: colonic tissue irritation (acetic acid)-induced visceral hypersensitivity, visceromotor response to colorectal distension. To be noted: p<0.05 ANOVA post-hoc Dunnett's test. It counts as in vivo, guinea pig. As to the method:
as §1

Test [3] has as its system isolated segments of guinea pig ileum. As to the kind of experiment: Substance P-mediated exaggerated peristalsis in organ baths (peristaltic reflex model). It counts as cell-based. The text has this: Substance P—mediated exaggerated peristalsis is studied in Mayflower organ baths using isolated segments of guinea pig ileum (Holzer et al., J. Pharmacol. Exp. Ther. 1995; 274: 322-328). The lumen of ileal segments is perfused with Krebs-Henseleit solution, and intraluminal pressures are continuously recorded. […] Any wave of peristaltic contractions results in a spike-like increase in intraluminal pressure and causes a partial emptying of fluid from the segment. Pressure thresholds triggering peristaltic contractions are used to quantify the effects of the compound of formula II.

Test [4] deals with submucosalmucosa preparations of guinea pig colon. As to the kind of experiment: epithelial secretion (electrogenic chloride secretion), Ussing chamber short circuit currents. It counts as cell-based. As for the experimental part: Epithelial secretion is tested in submucosalmucosa preparations of guinea pig colon. Using Ussing chamber techniques (Frieling et al., Naunyn Schmiedebergs Arch. Pharmacol. 1999; 359: 71-79) short circuit currents are recorded, and epithelial secretion (electrogenic chloride secretion) is stimulated via cumulative treatment with substance P (0.1 nM up to 10 μM); it triggers secretion (increases in short circuit currents) in a concentration-dependent fashion (pD2=7.50 ).

Where [5] appears, read: 3 mg/kg p.o. one hour prior to distension.
Where [6] appears, read: 10 mg/kg p.o. one hour prior to distension.

No end group written: not given here.

Regarding `CN(C(=O)c1cc(C(F)(F)F)cc(C(F)(F)F)c1)[C@@H](/C=C/C(=O)N[C@@H]1CCCCNC1=O)Cc1ccc(Cl)c(Cl)c1` [compound of formula II, (4R)-4-[N′-methyl-N′-(3,5-bistrifluoromethylbenzoyl)amino]-4-(3,4-dichlorobenzyl)-but-2-enoic acid N-[(R)-epsilon-caprolactam-3-yl]-amide], the “reversal of exaggerated behavioural pain responses upon colorectal balloon distension” value with conscious guinea pigs [1] (setting [5]), in the test on conscious guinea pigs [1] (setting [6]), in the test on conscious guinea pigs [2] (setting [5]) and in the test on conscious guinea pigs [2] (setting [6]) was “statistically significant” in each case. For the same compound, the results for the “apparent pA2, competitive inhibition of substance P-evoked exaggerated peristalsis” value in test [3] (30 nM) and in test [3] (100 nM) were 7.35 and 7.23, respectively. The “pA2 (Schild plot analysis), competitive inhibition of substance P-induced electrogenic chloride secretion” value in test [4] (30 nM, 100 nM and 300 nM) was 7.94.

As for “substance P: agonist applied cumulatively to evoke exaggerated peristalsis and epithelial chloride secretion (RPKPQQFFGLM; ends and bridges not checked; UniProt P20366 58-68, looked up) [reference compound]”, in test [3] (cumulative application 1 nM up to 30 μM), the “pD2, lowering of pressure thresholds triggering peristaltic contractions” value was 7.20. Further, the “pD2, stimulation of secretion (increases in short circuit currents)” value in test [4] (cumulative treatment 0.1 nM up to 10 μM) stood at 7.50.
